Experimental data taken from patent US12162885B2, “Crystal form of Xevinapant for treating LA SCCHN” (CRYSTAL PHARMACEUTICAL (SUZHOU) CO., LTD., priority 2022, dated 2024).
“Also recorded” adds a separate entry of the source.

Legend:
[1] = Humidity stability test with DVS analyzer; assay type: physicochemical; settings: DVS 0% RH-95% RH
Protocol: (§1) Dynamic Vapor Sorption (DVS) was measured via an SMS (Surface Measurement Systems Ltd.) intrinsic DVS instrument. The instrument control software is DVS-Intrinsic control software. Typical Parameters for DVS test are as follows: • Temperature: 25° C. • Gas and flow rate: N2, 200 mL/min • dm/dt: 0.002%/min • RH range: 0% RH-95% RH
DVS analyzer was applied to evaluate the humidity stability of prior art solids, Form CSI and Form CSII. The appearance of Form CSI before and after humidity stability test is shown in FIG. 12, and an XRPD pattern of Form CSI before and after test is shown in FIG. 13. The appearance of Form CSII before and after humidity stability test is shown in FIG. 14, and an XRPD pattern of Form CSII before and after test is shown in FIG. 15.

[2] = Storage stability of drug substance with open package (HPLC purity, XRPD form, appearance); assay type: physicochemical
Protocol: An appropriate amount of Form CSI was packaged with corresponding condition, and then stored with open package under 25° C./60% RH, 40° C./75% RH and 60° C./75% RH conditions for a period. Appropriate amounts of prior art solids were packaged with corresponding condition, and then stored with open package under 25° C./60% RH and 60° C./75% RH conditions for a period. Chemical purity and crystalline form were checked by HPLC and XRPD, respectively. The appearance comparison of prior art solid A and Solid B before and after storage are shown in FIG. 19 and FIG. 20, respectively.
Open: Put the sample into a glass vial, cover the vial with aluminum foil, and punch 5-10 holes in the foil.
An appropriate amount of Form CSII and prior art solids were packaged with corresponding conditions, and then stored with open package under 25° C./60% RH and 60° C./75% RH for a period. Chemical purity and crystalline form were checked by HPLC and XRPD, respectively. The appearance comparison of prior art solid A and Solid B before and after storage are shown in FIG. 19 and FIG. 20, respectively.

[3] = Stability upon mechanical force (ball milling, tableting; XRPD); assay type: physicochemical; settings: for Crystalline form before and after tableting (XRPD): manual tablet press, 20 kN, 6 mm round tooling; for Crystal form before and after ball milling (XRPD): milled 5 min at 500 rpm in a ball mill
Protocol: Form CSI was milled for 5 min at a vibration speed of 500 rpm in a ball mill. The sample before and after ball milling were checked by XRPD. […] An appropriate amount of Form CSI was compressed into a tablet using a manual tablet press under a pressure of 20 kN with a ϕ6 mm round tooling. Crystalline form before and after tableting were checked by XRPD. […] Form CSII was milled for 5 min at a vibration speed of 500 rpm in a ball mill. The sample before and after ball milling were checked by XRPD. […] An appropriate amount of Form CSII was compressed into a tablet using a manual tablet press under a pressure of 20 kN with a @6 mm round tooling. Crystalline form before and after tableting were checked by XRPD.

Hygroscopicity by DVS = assay type: physicochemical; settings: from 0% RH to 80% RH
Protocol: as §1, with “RH-95% RH DVS analyzer was applied to evaluate the hygroscopicity of Form CSI with about 10 mg of sample. […] DVS analyzer was applied to evaluate the hygroscopicity of Form CSII with about 10 mg of sample.” for “RH-95% RH”

[4] = Stability of crystalline form in the formulation process (XRPD); assay type: physicochemical; settings: formulation of Table 9, process of Table 10
Protocol: An XRPD of blank prescription (excipients) and the samples before and after the formulation were tested, and result is shown in FIG. 24. […] [table] [table] An XRPD of Blank prescription (excipients) and Form CSII before and after the formulation were tested, and result is shown in FIG. 28.

LA SCCHN = settings: phase 2 clinical trial, combination with CRT compared to CRT alone; cited from earlier work
[5] = Initial (baseline of storage stability)

SMILES | Appearance after test [1] | Crystal change before and after humidity stability test (XRPD) [1] | Appearance ([2]; Initial) | Form ([2]; Initial) | Crystalline form before and after tableting (XRPD) [3] | Crystal form before and after ball milling (XRPD) [3] | Weight gain (Hygroscopicity by DVS) [%] | Crystalline form before and after the formulation process (XRPD) [4] | Purity [2, 5] [%] | Appearance ([2]; 25° C./60% RH, Open, 1 month) | Form ([2]; 25° C./60% RH, Open, 1 month) | Purity ([2]; 25° C./60% RH, Open, 1 month) [%] | Appearance ([2]; 60° C./75% RH, Open, 1 week) | Form ([2]; 60° C./75% RH, Open, 1 week) | further results
CN[C@@H](C)C(=O)N[C@H]1CN(C(=O)CC(C)C)CC[C@H]2CC[C@@H](C(=O)NC(c3ccccc3)c3ccccc3)N2C1=O [Form CSII] | Powder | no crystal change | Powder | Form CSII | kept stable after tableting | keeps stable after ball milling | 1.16 | keeps stable before and after the formulation process | – | – | – | – | – | – | Physical stability ([2]; 60° C./75% RH open condition): keeps physically stable for at least four weeks; Appearance ([2]; 60° C./75% RH, Open, 4 weeks): Powder; Form ([2]; 60° C./75% RH, Open, 4 weeks): No crystal change; also recorded: Form CSII
CN[C@@H](C)C(=O)N[C@H]1CN(C(=O)CC(C)C)CC[C@H]2CC[C@@H](C(=O)NC(c3ccccc3)c3ccccc3)N2C1=O [Form CSI] | Powder | no crystal change | Powder | Form CSI | keeps stable after tableting | No crystal change | 0.46 | keeps stable before and after the formulation process | 99.50 | – | – | – | – | – | Time stable ([2]; 25° C./60% RH open condition): at least 6 months; Appearance ([2]; 25° C./60% RH, Open, 6 months): Powder; Form ([2]; 25° C./60% RH, Open, 6 months): Form CSI; Purity ([2]; 25° C./60% RH, Open, 6 months): 99.45%; Time stable ([2]; 40° C./75% RH open condition): at least 6 months; Appearance ([2]; 40° C./75% RH, Open, 6 months): Powder; Form ([2]; 40° C./75% RH, Open, 6 months): Form CSI; Purity ([2]; 40° C./75% RH, Open, 6 months): 99.45%; Time stable ([2]; 60° C./75% RH open condition): at least 3 months; Appearance ([2]; 60° C./75% RH, Open, 3 months): Powder; Form ([2]; 60° C./75% RH, Open, 3 months): Form CSI
CN[C@@H](C)C(=O)N[C@H]1CN(C(=O)CC(C)C)CC[C@H]2CC[C@@H](C(=O)NC(c3ccccc3)c3ccccc3)N2C1=O.Cl [Prior art Solid A, reference compound] | Transparent solid | – | Powder | Amorphous | – | – | – | – | 98.77 | Powder | Amorphous | 98.65 | Gel | Gel | –
CN[C@@H](C)C(=O)N[C@H]1CN(C(=O)CC(C)C)CC[C@H]2CC[C@@H](C(=O)NC(c3ccccc3)c3ccccc3)N2C1=O.O=C(O)C(F)(F)F [Prior art Solid B, reference compound] | Transparent solid | – | Powder | Amorphous | – | – | – | – | 98.87 | Powder | Amorphous | 98.73 | Gel | Gel | –
CN[C@@H](C)C(=O)N[C@H]1CN(C(=O)CC(C)C)CC[C@H]2CC[C@@H](C(=O)NC(c3ccccc3)c3ccccc3)N2C1=O [Xevinapant, (5S,8S,10aR)—N-benzhydryl-5-((S)-2-(methylamino)propanamido)-3-(3-methylbutanoyl)-6-oxodecahydropyrrolo[l,2-a][l,5]diazocine-8-carboxamide] | – | – | – | – | – | – | – | – | – | – | – | – | – | – | Efficacy in treating patients with LA SCCHN (LA SCCHN): demonstrated efficacy
